“Also recorded” adds a separate entry of the source. Like-named read-outs stand apart in the source and are kept apart here.
Columns and labels:
[1] = test system: viral glycoproteins (GRFN-1 binding; gp120LAV chip); test: SPR competition of saccharides with GRFN-1 binding; design: species or system HIV-1
Source text: α-D-mannopyranose (Man), L-fucopyranose (Fuc), α-D-galactopyranose (Gal), sialic acid (N-acetyl-neuraminic acid, Neu5Ac), N-acetyl-glucosamine (GlcNAc) and Man3(GlcNAc)2, a core pentasaccharide found in most N-linked oligosaccharides. All of these saccharides were purchased from Sigma-Aldrich (St. Louis, MO).

[2] = test system: HIV-1 (BaL); format: cell-based; details: TZM-bl assay; for EC50: HIV-1 BaL (R5), 24 hr, luciferase activity
Description: The ability of the analogs to inhibit HIV infection was determined with an assay that determines viral infectivity with an LTR-mediated luciferase reporter construct [37]. In brief, TZM-bl reporter cells are HeLa-derived JC53-BL cells that express high levels of CD4, CXCR4, and CCR5. They also contain reporter cassettes for luciferase and β-galactosidase, both driven by the HIV-1 long terminal repeat [38]). 24 hr after these reporter cells were exposed to R5 lab-adapted strains of HIV-1 (BaL) in the presence of peptides, protection was measured as % reduction in luciferase activity (relative light units) compared to cells infected with virus and peptide vehicle alone.

[3] = test system: CXCR4 (HIV-1IIIB); test: p24^gag antigen release assay using PBMCs, CXCR4 strain; format: cell-based; details: PBMC based p24^gag antigen release assay
[4] = test system: CCR5 (HIV-1BAL); test: p24^gag antigen release assay using PBMCs, CCR5 strain; format: cell-based; details: PBMC based p24^gag antigen release assay
[5] = test system: HIV-1; details: read-out: average EC50; anti-HIV inhibitory activity; ref [20], [21]; cited from earlier work
Source text: Preventing HIV-1 infection is the primary goal of pre- and post-exposure prophylaxis of HIV. Prophylactic modalities that block HIV-1 entry would be particularly valuable, because latent HIV-1 infections are typically refractory to therapeutic or immunological interventions [1]–[9]. […] Most anti-HIV lectins have been identified in and isolated from natural sources. They include cyanovirin-N [11], [12] and scytovirin [13] from cyanobac ...

CC(=O)N[C@@H]1[C@@H](O)[C@H](O)[C@@H](CO)O[C@H]1O [GlcNAc, N-acetyl-glucosamine]
competition with binding of GRFN-1 to viral glycoproteins (in words) ([1]; pH = 7.4): interacted with all of these sugars, except fucose; also recorded: the most effective competitors

OC[C@H]1O[C@H](O)[C@@H](O)[C@@H](O)[C@@H]1O [mannose, α-D-mannopyranose]
competition with binding of GRFN-1 to viral glycoproteins (in words) ([1]; pH = 7.4): interacted with all of these sugars, except fucose; also recorded: the most effective competitors
competition with binding of GRFN-1 to viral glycoproteins (in words) ([1]; pH = 7.4, listed as D-Mannose): especially potent inhibitor that could almost completely abrogate binding of GRFN-1 to the viral glycoproteins

CC[C@H](C)[C@@H]1NC(=O)CNC(=O)[C@H](CCCCN)NC(=O)CNC(=O)[C@@H]2CSSC[C@H](NC1=O)C(=O)N[C@@H](CCCNC(=N)N)C(=O)N[C@H]1CSSC[C@H](NC(=O)[C@H](CCCNC(=N)N)NC(=O)[C@@H]3CSSC[C@H](NC(=O)[C@H]([C@@H](C)CC)NC1=O)C(=O)NCC(=O)N[C@@H](CCCNC(=N)N)C(=O)NCC(=O)N[C@@H]([C@@H](C)CC)C(=O)N3)C(=O)N[C@@H]([C@@H](C)CC)C(=O)N2 [RC-101, reference compound]
EC50 [2]: 3400 nM

O=C[C@H](O)[C@@H](O)[C@@H](O)[C@H](O)CO [galactose, α-D-galactopyranose]
competition with binding of GRFN-1 to viral glycoproteins (in words) ([1]; pH = 7.4): interacted with all of these sugars, except fucose

griffithsin
EC50 ([2]; griffithsin): 0.0196 ± 0.0019 nM
antiviral activity (in words) [3]: maintained their antiviral activity
antiviral activity (in words) [4]: maintained their antiviral activity
EC50 [5]: 0.04 nM

Cha-SC-Chg-R-Chg-RSGSY-Cha-DR-Ch\g-R-Chg-(D)Cys-CONH2 (disulfide) [GRFN-2, otherwise identical peptide with an Asn to Arg substitution]
antiviral activity (in words) ([2]; dose response, Figure 4): considerably less active than GRFN-1

CC(=O)N[C@H]1[C@H]([C@H](O)[C@H](O)CO)OC(O)(C(=O)O)C[C@@H]1O (stereo partly drawn) [sialic acid, N-acetyl-neuraminic acid]
competition with binding of GRFN-1 to viral glycoproteins (in words) ([1]; pH = 7.4): interacted with all of these sugars, except fucose; also recorded: less profound

Man3GlcNAc2
competition with binding of GRFN-1 to viral glycoproteins (in words) ([1]; pH = 7.4): interacted with all of these sugars, except fucose
